Results published in ChEMBL document CHEMBL1129258, “Synthesis and structure-activity relationships of 2-pyridones: a novel series of potent DNA gyrase inhibitors as antibacterial agents” (J Med Chem, 1996).
In brackets after ≈: the same amount, converted by molar mass.

Key:
[1] = target: T1, DNA gyrase (Escherichia coli) (UniProt P0AES6+P0AES4); conditions: Escherichia coli K-12
Description: Concentration which causes 50% of the gyrase (Escherichia coli H560)-mediated maximal DNA cleavage.

[2] = target: T1, DNA gyrase (Escherichia coli); assay: In vivo efficacy against Escherichia coli JUHL by subcutaneous administration; type: functional, organism-based; conditions: Escherichia coli K-12
[3] = target: T1, DNA gyrase (Escherichia coli); assay: In vitro antibacterial activity against gram-positive organism Streptococcus bovis A-5169; type: functional; conditions: Streptococcus equinus
Pseudomonas aeruginosa = assay: In vivo efficacy against Pseudomonas aeruginosa 5007 following p.o. administration.
[4] = target: T2, DNA gyrase (Staphylococcus aureus) (UniProt P0A0K8+P20831); assay: In vivo efficacy against Staphylococcus aureus NCTC-10649M after subcutaneous administration; type: functional, organism-based
[5] = target: T2, DNA gyrase (Staphylococcus aureus); assay: In vivo efficacy against Staphylococcus aureus NCTC-10649M after oral administration; type: functional, organism-based
[6] = target: T1, DNA gyrase (Escherichia coli); assay: In vivo efficacy against Escherichia coli JUHL after oral administration; type: functional, organism-based; conditions: Escherichia coli K-12
[7] = target: T1, DNA gyrase (Escherichia coli); assay: In vitro antibacterial activity against gram-positive organism Enterococcus faecium ATCC 8043; type: functional
[8] = target: T2, DNA gyrase (Staphylococcus aureus); assay: In vitro antibacterial activity against gram-positive organism Staphylococcus aureus NCTC-10649M; type: functional
[9] = target: T1, DNA gyrase (Escherichia coli); assay: In vitro antibacterial against gram-negative organism Escherichia coli JUHL; type: functional; conditions: Escherichia coli K-12
[10] = target: T2, DNA gyrase (Staphylococcus aureus); assay: In vitro antibacterial activity against gram-positive organism Staphylococcus aureus 1775; type: functional
[11] = target: T2, DNA gyrase (Staphylococcus aureus); assay: In vitro antibacterial activity against gram-positive organism Staphylococcus aureus ATCC 6538p; type: functional
[12] = target: T1, DNA gyrase (Escherichia coli); assay: In vitro antibacterial activity against gram-negative organism Klebsiella pneumoniae ATCC 8045; type: functional
[13] = target: T1, DNA gyrase (Escherichia coli); assay: In vitro antibacterial activity against gram-negative organism […] ATCC 13048; type: functional; conditions: Enterobacter aerogenes
[14] = target: T1, DNA gyrase (Escherichia coli); assay: In vitro antibacterial activity against gram-negative organism Prov. stuartii CMX-640; type: functional; conditions: Providencia stuartii
Streptococcus pyogenes = assay: In vitro antibacterial activity against gram-positive organism Streptococcus pyogenes EES61; type: functional; conditions: Streptococcus pyogenes; read-out: MIC
[15] = In vitro antibacterial activity against gram-negative organism Pseudomonas aeruginosa 5007; type: functional
[16] = In vitro antibacterial activity against gram-negative organism Pseudomonas aeruginosa DPHD-2862; type: functional; conditions: Pseudomonas aeruginosa; read-out: MIC
[17] = Pseudomonas aeruginosa, read-out: MIC

SMILES | ED50 [2] [mg/kg] | MIC [3] [mg/L] | ED50 (Pseudomonas aeruginosa) [mg/kg] | ED50 [4] [mg/kg] | ED50 [5] [mg/kg] | ED50 [6] [mg/kg] | MIC [7] [mg/L] | MIC [8] [mg/L] | MIC [9] [mg/L] | MIC [10] [mg/L] | MIC [11] [mg/L] | MIC [12] [mg/L] | MIC [13] [mg/L] | MIC [14] [mg/L] | MIC (Streptococcus pyogenes) [mg/L] | MIC [15, 17] [mg/L] | MIC [16] [mg/L] | MIC [15] [pug ml-1] | CC50 [1] [mg/L]
Cc1c(N2C[C@@H]3CCCN[C@@H]3C2)c(F)cn2c(=O)c(C(=O)O)cc(C3CC3)c12 (stereo in doubt; 45n) | 1 | 0.05 (≈ 0.13 µM) | 36.4 | 0.9 | 3.1 | 3.3 | 0.1 (≈ 0.259 µM) | 0.02 (≈ 0.0519 µM) | 0.05 (≈ 0.13 µM) | 0.78 (≈ 2.02 µM) | 0.01 (≈ 0.0259 µM) | 0.01 (≈ 0.0259 µM) | 0.05 (≈ 0.13 µM) | 0.78 (≈ 2.02 µM) | – | – | – | – | 0.3 (≈ 0.778 µM)
Cc1c(N2CC(N)C2)c(F)cn2c(=O)c(C(=O)O)cc(C3CC3)c12 | – | 0.78 (≈ 2.35 µM) | – | – | – | – | 0.2 (≈ 0.604 µM) | 0.05 (≈ 0.151 µM) | 0.01 (≈ 0.0302 µM) | 6.2 (≈ 18.7 µM) | 0.1 (≈ 0.302 µM) | 0.01 (≈ 0.0302 µM) | 0.05 (≈ 0.151 µM) | 1.56 (≈ 4.71 µM) | 0.39 (≈ 1.18 µM) | – | 12.5 (≈ 37.7 µM) | 0.2 | 1.5 (≈ 4.53 µM)
Cc1c(N2CC[C@@]3(C[C@H]3N)C2)c(F)cn2c(=O)c(C(=O)O)cc(C3CC3)c12 | 1.9 | – | – | 1.5 | 6.3 | 12.8 | 0.05 (≈ 0.135 µM) | 0.01 (≈ 0.0269 µM) | 0.01 (≈ 0.0269 µM) | 0.39 (≈ 1.05 µM) | 0.005 (≈ 0.0135 µM) | 0.01 (≈ 0.0269 µM) | 0.05 (≈ 0.135 µM) | 0.78 (≈ 2.1 µM) | 0.02 (≈ 0.0538 µM) | 0.39 (≈ 1.05 µM) | 6.2 (≈ 16.7 µM) | – | –
NC1CCN(c2nc3c(C4CC4)cc(C(=O)O)c(=O)n3cc2F)C1 (centres undefined) | 1 | 3.1 (≈ 9.33 µM) | – | > 8 | > 12 | 4.7 | 1.56 (≈ 4.69 µM) | 0.2 (≈ 0.602 µM) | 0.02 (≈ 0.0602 µM) | 25 (≈ 75.2 µM) | 0.2 (≈ 0.602 µM) | 0.02 (≈ 0.0602 µM) | 0.02 (≈ 0.0602 µM) | 1.56 (≈ 4.69 µM) | 1.56 (≈ 4.69 µM) | 0.39 (≈ 1.17 µM) | 25 (≈ 75.2 µM) | – | 0.15 (≈ 0.451 µM)
Cc1c(N2C[C@@H]3CCN[C@@H]3C2)c(F)cn2c(=O)c(C(=O)O)cc(C3CC3)c12 (stereo in doubt; (S,S)45o) | 0.8 | 0.1 (≈ 0.269 µM) | – | 1.5 | 5 | > 10 | 0.1 (≈ 0.269 µM) | 0.05 (≈ 0.135 µM) | 0.02 (≈ 0.0538 µM) | 3.1 (≈ 8.35 µM) | 0.05 (≈ 0.135 µM) | 0.01 (≈ 0.0269 µM) | 0.05 (≈ 0.135 µM) | 0.39 (≈ 1.05 µM) | – | – | – | – | –

Further lines, with some results ahead:

ED50 [2] [mg/kg] | MIC [3] [mg/L] | ED50 (Pseudomonas aeruginosa) [mg/kg] | ED50 [4] [mg/kg] | ED50 [5] [mg/kg] | ED50 [6] [mg/kg] | MIC [7] [mg/L] | MIC [8] [mg/L] | MIC [9] [mg/L] | MIC [10] [mg/L] | MIC [11] [mg/L] | MIC [12] [mg/L] | MIC [13] [mg/L] | MIC [14] [mg/L] | MIC (Streptococcus pyogenes) [mg/L] | MIC [15, 17] [mg/L] | MIC [16] [mg/L] | MIC [15] [pug ml-1] | SMILES | CC50 [1] [mg/L]
– | 6.2 (≈ 18 µM) | – | – | – | – | 6.2 (≈ 18 µM) | 1.56 (≈ 4.52 µM) | 0.2 (≈ 0.579 µM) | 50 (≈ 145 µM) | 0.78 (≈ 2.26 µM) | 0.1 (≈ 0.29 µM) | 0.39 (≈ 1.13 µM) | 12.5 (≈ 36.2 µM) | 3.1 (≈ 8.98 µM) | 1.56 (≈ 4.52 µM) | 100 (≈ 290 µM) | – | Cc1c(F)c(N2CCC(N)C2)cc2c(C3CC3)cc(C(=O)O)c(=O)n12 (centres undefined) | 10 (≈ 29 µM)
– | 6.2 (≈ 15.3 µM) | – | – | – | – | 0.78 (≈ 1.92 µM) | 0.05 (≈ 0.123 µM) | 0.1 (≈ 0.247 µM) | 100 (≈ 247 µM) | 0.05 (≈ 0.123 µM) | 0.05 (≈ 0.123 µM) | 0.39 (≈ 0.962 µM) | 6.2 (≈ 15.3 µM) | 0.78 (≈ 1.92 µM) | 0.78 (≈ 1.92 µM) | > 100 | – | O=C(O)c1cc(-c2ccc(F)cc2F)c2nc(N3CCC(O)C3)c(F)cn2c1=O (centres undefined) | 0.5 (≈ 1.23 µM)
– | 0.78 (≈ 2.23 µM) | – | 2.9 | 14.6 | – | 0.78 (≈ 2.23 µM) | 0.1 (≈ 0.286 µM) | 0.01 (≈ 0.0286 µM) | 6.2 (≈ 17.7 µM) | 0.1 (≈ 0.286 µM) | 0.01 (≈ 0.0286 µM) | 0.02 (≈ 0.0573 µM) | 3.1 (≈ 8.87 µM) | 0.78 (≈ 2.23 µM) | 0.39 (≈ 1.12 µM) | 6.2 (≈ 17.7 µM) | – | NC1CCN(c2c(F)cn3c(=O)c(C(=O)O)cc(C4CC4)c3c2F)C1 (centres undefined) | 2.2 (≈ 6.3 µM)
